No end group written: not given here.

The test system of test [1] is Rat aortic smooth muscle cells (RSMC). Nature of the test: cGMP level measurements in rat aortic smooth muscle cells stimulated with ANF. It is filed as cell-based. Particulars: compound 30 minutes at 37° C., then ANF (100 nM) 10 minutes, dose giving half of the stimulation at saturating concentrations. How it is done: Rat aortic smooth muscle cells (RSMC), prepared according to Chamley et al., Cell Tissue Res., 177, 503-522 (1977), were used between the 10th and 25th passage at confluence in 24-well culture dishes. Culture media was aspirated and replaced with PBS (0.5 ml) containing the compound tested at the appropriate concentration. After 30 minutes at 37° C., particulates guanylate cyclase was stimulated by addition of ANF (100 nM) for 10 minutes. At the end of incubation, the medium was withdrawn, and two extractions were performed by addition of 65% ethanol (0.25 ml). The two ethanolic extracts were pooled and evaporated until dryness, using a Speed-vac system. CGMP was measured after acetylation by scintillation proximity immunoassay (AMERSHAM). The EC50 values are expressed as the dose-giving half of the stimulation at saturating concentrations.

The next test deals with human recombinant PDE5 (Homo sapiens, UniProt O76074). Nature of the test: Inhibitory effect on cGMP-PDE (one-step PDE5 assay). It is filed as biochemical. Particulars: 0.15 μM 8-[H^3 ]-cGMP, 2% DMSO, 30 minutes. How it is done:
CGMP-PDE activity of compounds of the present invention was measured using a one-step assay adapted from Wells et al., Biochim. Biophys. Acta, 384, 430 (1975). The reaction medium contained 50 mM Tris-HCl, pH 7.5, 5 mM magnesium acetate, […] 51-Nucleotidase, 1 mM EGTA, and 0.15 μM 8-[H^3 ]-cGMP. The enzyme used was a human recombinant PDE5 (ICOS Corp., Bothell, Wash.).
Compounds of the invention were dissolved in DMSO finally present at 2% in the assay.

The subject of test [2] is conscious spontaneously hypertensive rats (SHRs). The test can be described thus: Hypotensive effect in conscious spontaneously hypertensive rats. The note with it: 5 mg/kg orally in 5% DMF and 95% olive oil, AUC from 0 to 5 hours. It is filed as in vivo, rat. How it is done:
The hypotensive effects of compounds according to the invention as identified in Table 2 were studied in conscious spontaneously hypertensive rats (SHRs). The compounds were administered orally at a dose of 5 mg/kg in a mixture of 5% DMF and 95% olive oil. Blood pressure was measured from a catheter inserted in the carotid artery and recorded for five hours after administration. The results are expressed as Area Under the Curve (AUC from 0 to 5 hours, mmhg.hour) of the fall in blood pressure over time.

The test system of a further test is MED. Particulars: clinical; oral, sublingual, intraurethral, i.c. or topical; cited from earlier work.

What is called EC50 is the concentration needed to bring the measured effect to its halfway point. By IC50 is commonly meant the point on the concentration scale where inhibition reaches its midpoint. In test [1], `CC(=O)Nc1ccc(/C=C/C(=O)N2CCc3c([nH]c4ccccc34)C2c2ccc3c(c2)OCO3)cc1` (stereo not drawn) [Example 14, (E)-N-[4-[3-Oxo-3-(1-(3,4-methylenedioxyphenyl)-1,3,4,9-tetrahydro-β-carbolin-2-yl)propenyl]phenyl]acetamide] gave an EC50 of 450 nM. For the same compound, the IC50 at human recombinant PDE5 was found to be 5 nM. Besides, the “SHR AUC PO (Area Under the Curve of the fall in blood pressure over time)” value in test [2] is 128 mmHG · h.
The corresponding values for `Nc1ccc(/C=C/C(=O)N2CCc3c([nH]c4ccccc34)C2c2ccc3c(c2)OCO3)cc1` (stereo not drawn) [Example 25, (E)-1-[1-(3,4-Methylenedioxyphenyl)-1,3,4,9-tetrahydro-β-carbolin-2-yl]-3-(4-aminophenyl)propene-1-one] are 300 nM, 72 nM and 72 mmHG · h.
Turning to `O=C(/C=C/c1ccc([N+](=O)[O-])cc1)N1CCc2c([nH]c3ccccc23)C1c1ccc2c(c1)OCO2` (stereo not drawn) [Example 26, (E)-1-[1-(3,4-Methylenedioxyphenyl)-1,3,4,9-tetrahydro-β-carbolin-2-yl]-3-(4-nitrophenyl)propene-1-one], the “SHR AUC PO (Area Under the Curve of the fall in blood pressure over time)” value in test [2] is recorded as 102 mmHG · h.
The compound `COC(=O)c1ccc(/C=C/C(=O)N2CCc3c([nH]c4ccccc34)C2c2ccc3c(c2)OCO3)cc1` (stereo not drawn) [Example 28, (E)-4-[3-Oxo-3-[1-(3,4-methylenedioxyphenyl)-1,3,4,9-tetrahydro-β-carbolin-2-yl]-propenyl]benzoic Acid, Methyl Ester] came in with an EC50 in test [1] of 300 nM. Besides, the IC50 on human recombinant PDE5 turned out to be 55 nM. Also, in test [2], the “SHR AUC PO (Area Under the Curve of the fall in blood pressure over time)” value was found to be 114 mmHG · h.
`O=C(O)c1ccc(/C=C/C(=O)N2CCc3c([nH]c4ccccc34)C2c2ccc3c(c2)OCO3)cc1` (stereo not drawn) [Example 31, (E)-4-[3-Oxo-3-[1-(3,4-methylenedioxyphenyl)-1,3,4,9-tetrahydro-β-carbolin-2-yl]-propenyl]benzoic acid] came in with an EC50 in test [1] of 1000 nM. For the same compound, on human recombinant PDE5, the IC50 was found to be 4 nM. Moreover, the “SHR AUC PO (Area Under the Curve of the fall in blood pressure over time)” value in test [2] is 86 mmHG · h.
The matching figures for `CC(C)C(=O)Nc1ccc(/C=C/C(=O)N2CCc3c([nH]c4ccccc34)C2c2ccc3c(c2)OCO3)cc1` (stereo not drawn) [Example 55, (E)-N-[4-[3-Oxo-3-(1-(3,4-methylenedioxyphenyl)-1,3,4,9-tetrahydro-β-carbolin-2-yl)propenyl]phenyl]isobutyramide]: 400 nM, 40 nM and 97 mmHG · h.
In test [1], `CN(C)CCOc1ccc(/C=C/C(=O)N2CCc3c([nH]c4ccccc34)C2c2ccc3c(c2)OCO3)cc1` (stereo not drawn) [Example 61, (E)-1-[1-(3,4-Methylenedioxyphenyl)-1,3,4,9-tetrahydro-β-carbolin-2-yl]-3-[4-(2-dimethylaminoethoxy)phenyl]propene-1-one] had an EC50 of 1800 nM. Further, the IC50 at human recombinant PDE5 was found to be 20 nM. Moreover, in test [2], the “SHR AUC PO (Area Under the Curve of the fall in blood pressure over time)” value was 95 mmHG · h.
In the case of `O=C(/C=C/c1ccccc1)N1CCc2c([nH]c3ccccc23)C1c1ccc2c(c1)CCO2` (stereo not drawn) [Example 112, (E)-1-[1-(2,3-Dihydrobenzofuran-5-yl)-1,3,4,9-tetrahydro-β-carbolin-2-yl]-3-phenylpropene-1-one], the “SHR AUC PO (Area Under the Curve of the fall in blood pressure over time)” value in test [2] is on record as 71 mmHG · h.
For the compound `CN(C)CCOc1ccc(/C=C/C(=O)N2CCc3c([nH]c4ccccc34)C2c2ccc3c(c2)CCO3)cc1` (stereo not shown) [Example 122], the “SHR AUC PO (Area Under the Curve of the fall in blood pressure over time)” value in test [2] is recorded as 76 mmHG · h.
Regarding `CN(C)CCOc1ccc(/C=C/C(=O)N2CCc3c([nH]c4ccccc34)[C@H]2c2ccc3c(c2)CCO3)cc1` [Example 140], the EC50 in test [1] worked out at 100 nM. In addition, the “SHR AUC PO (Area Under the Curve of the fall in blood pressure over time)” value in test [2] was determined as 105 mmHG · h.
As for `O=C(/C=C/c1ccc(OCCN2CCCC2)cc1)N1CCc2c([nH]c3ccccc23)C1c1ccc2c(c1)CCO2` (stereo not shown) [Example 142], in test [1], a half-maximal response (EC50) required 1500 nM. The “SHR AUC PO (Area Under the Curve of the fall in blood pressure over time)” value in test [2] was 74 mmHG · h.
The compound `CN1CCC[C@H]1COc1ccc(/C=C/C(=O)N2CCc3c([nH]c4ccccc34)[C@H]2c2ccc3c(c2)CCO3)cc1` [Example 156] returned an EC50 in test [1] of under 1000 nM. Besides, the “SHR AUC PO (Area Under the Curve of the fall in blood pressure over time)” value in test [2] turned out to be 57 mmHG · h.
As to `CCN(CC)CCOc1ccc(/C=C/C(=O)N2CCc3c([nH]c4ccccc34)[C@H]2c2ccc3c(c2)CCO3)cc1` [Example 164], a half-maximal effect in test [1] (EC50) was put at 1500 nM.
The same measure, in the same setting: to `CC(COc1ccc(/C=C/C(=O)N2CCc3c([nH]c4ccccc34)[C@H]2c2ccc3c(c2)CCO3)cc1)N(C)C` (stereo partly shown) [Example 165] belongs under 1000 nM.
`CCN(C)CCOc1ccc(/C=C/C(=O)N2CCc3c([nH]c4ccccc34)[C@H]2c2ccc3c(c2)CCO3)cc1` [Example 175, (E)-(R)-1-[1-(2,3-Dihydrobenzofuran-5-yl)-1,3,4,9-tetrahydro-β-carbolin-2-yl]-3-(4-(2-(ethylmethylamino)ethoxy)phenyl)propene-1-one]: the “SHR AUC PO (Area Under the Curve of the fall in blood pressure over time)” value in test [2] was determined as 52 mmHG · h.
`CN(C)C[C@@H](O)COc1ccc(/C=C/C(=O)N2CCc3c([nH]c4ccccc34)C2c2ccc3c(c2)CCO3)cc1` (stereo partly drawn) [Example 177, (E)-(R)-1-[1-(2,3-Dihydrobenzofuran-5-yl)-1,3,4,9-tetrahydro-β-carbolin-2-yl]-3-(4-(3-dimethylamino-2-hydroxypropoxy)phenyl)propene-1-one] gave an EC50 in test [1] of under 1000 nM. In test [2], the “SHR AUC PO (Area Under the Curve of the fall in blood pressure over time)” value worked out at 100 mmHG · h.
`CN(C)CCNc1ccc(/C=C/C(=O)N2CCc3c([nH]c4ccccc34)[C@H]2c2ccc3c(c2)CCO3)cc1` [Example 180] yielded an EC50 in test [1] of 3500 nM.
As for `NCCOc1ccc(/C=C/C(=O)N2CCc3c([nH]c4ccccc34)[C@H]2c2ccc3c(c2)CCO3)cc1` [Example 181, (E)-(R)-1-[1-(2,3-Dihydrobenzofuran-5-yl)-1,3,4,9-tetrahydro-β-carbolin-2-yl]-3-(4-(2-aminoethoxy)phenyl)propene-1-one], the EC50 in test [1] worked out at 2000 nM. Further, in test [2], the “SHR AUC PO (Area Under the Curve of the fall in blood pressure over time)” value turned out to be 77 mmHG · h.
In turn, `O=C(/C=C/c1ccc(O)cc1)N1CCc2c([nH]c3ccccc23)[C@H]1c1ccc2c(c1)CCO2` [Example 182, (E)-(R)-1-[1-(2,3-Dihydrobenzofuran-5-yl)-1,3,4,9-tetrahydro-β-carbolin-2-yl]-3-(4-hydroxyphenyl)propene-1-one] registered an EC50 in test [1] of under 1000 nM.
For `CN1CCN(c2ccc(/C=C/C(=O)N3CCc4c([nH]c5ccccc45)[C@H]3c3ccc4c(c3)CCO4)cc2)CC1` [Example 183], the midpoint of the response in test [1], the EC50, lay at 2000 nM.
Still for that read-out and setting: to `CNCc1ccc(/C=C/C(=O)N2CCc3c([nH]c4ccccc34)[C@H]2c2ccc3c(c2)CCO3)cc1` [Example 184] belongs 3000 nM.
In turn, `O=C(/C=C/c1ccc(OCCN2CCCCC2)cc1)N1CCc2c([nH]c3ccccc23)[C@H]1c1ccc2c(c1)CCO2` [Example 188, (E)-(R)-1-[1-(2,3-Dihydrobenzofuran-5-yl)-1,3,4,9-tetrahydro-β-carbolin-2-yl]-3-(4-(2-piperidin-1-ylethoxy)phenyl)propene-1-one] registered an EC50 in test [1] of under 1000 nM. Besides, the “SHR AUC PO (Area Under the Curve of the fall in blood pressure over time)” value in test [2] came out at 86 mmHG · h.
Consider `CNCCOc1ccc(/C=C/C(=O)N2CCc3c([nH]c4ccccc34)[C@H]2c2ccc3c(c2)CCO3)cc1` [Example 191, (E)-(R)-1-[1-(2,3-Dihydrobenzofuran-5-yl)-1,3,4,9-tetrahydro-carbolin-2-yl]-3-[4-(2-methylaminoethoxy)phenyl]propene-1-one], for which the EC50 in test [1] was under 1000 nM. The “SHR AUC PO (Area Under the Curve of the fall in blood pressure over time)” value in test [2] worked out at 84 mmHG · h.
Regarding `CCCCC[C@H](O)/C=C/[C@H]1[C@H](O)CC(=O)[C@@H]1CCCCCCC(=O)O` [alprostadil], in the test on MED, the “efficacy in MED” value was “not effective in all patients”.
For the compound `CN1CCc2cccc3c2[C@H]1Cc1ccc(O)c(O)c1-3` [apomorphine], the “efficacy in MED” value in the test with MED is on record as “neither compound has demonstrated efficacy across a broad range of subjects”.
Consider `Cc1ccc(N(CC2=NCCN2)c2cccc(O)c2)cc1` [phentolamine], for which, in the test with MED, the “efficacy in MED” value is “neither compound has demonstrated efficacy across a broad range of subjects”.
“vasoactive intestinal polypeptide (VIP): vasoactive intestinal polypeptide (VIP) (HSDAVFTDNYTRLRKQMAVKKYLNSILN; ends and bridges not checked; UniProt P01282 125-152, looked up)”: in the test with MED, the “efficacy in MED” value is “active i.c”.

(Values after patent US6043252A, “Carboline derivatives” (Icos Corporation, priority 1998, dated 2000).)
